# According to patent US20230218754A1, “PHARMACEUTICAL COMPOSITIONS WITH ANTI-RANKL ANTIBODIES, CALCIUM AND VITAMIN D” (priority 2016, published 2023):
# “And” between values parts separate entries of the source, which are not always exact repeats. Identical values can stand only once.
# What was measured:
# [1] = chair-rising test (standing up test) in osteoporosis patients; type: in vivo, human; details: 60 mg denosumab (Prolia) + 500 mg calcium + 1000 IE vitamin D3
# Experimental: The so-called “chair-rising test” (standing up test) was carried out in 3 patients.
# The chair-rising test (standing up test) allows a determination to made concerning the strength and falling risk of the test person. The test person is asked to stand up and sit back down five times as quickly as possible with his/her arms folded over his/her chest and without using them from a chair of ordinary height (approximately 46 cm seat height). If the patient is not capable of doing this, the number of successful completions are counted rather than the seconds. If the patient takes longer than 10-11 seconds, it must be assumed that he/she is at increased risk of falling.
# The improvement is given in the right column in %.
# [2] = serum calcium level in patients under denosumab plus calcium and vitamin D3; type: in vivo, human
# Experimental: The following data from an oncological patient (prostate cancer) in Table 5 show the serum levels of calcium and vitamin D3 in administration of 120 mg of denosumab (anti-RANKL antibody, Xgeva) every 4 weeks and the oral administration of 500 mg of calcium daily and 1000 IU of vitamin D3 daily.
# In Table 5, the patient received 120 mg of denosumab every 4 weeks and 500 mg of calcium and 1000 IU of vitamin D3:
# The following data from osteoporosis patients in Table 6 show the serum values of calcium and vitamin D3 in administration of 60 mg of anti-RANKL antibody/denosumab (Prolia) every 6 months and the oral administration of 500 mg of calcium daily and 1000 IU of vitamin D3 daily.
# In Table 6, the osteoporosis patients received 60 mg of denosumab every 6 months, 500 mg of calcium daily, and 1000 IU of vitamin D3, also daily: […]
# [3] = background statement; cited from earlier work
# [4] = 25(OH) vitamin D3 serum concentration under vitamin D maintenance dose in patients with vitamin D deficiency; type: in vivo, human; details: maintenance dose of 400 IU of vitamin D daily
# [5] = as above; type: in vivo, human
# Text: Vitamin D deficiency is a common diagnosis in osteology practice. […] The maintenance dose was 1000 IU of vitamin D daily.
compound,measurement,setting,value
denosumab: anti-RANKL antibody approved as a medicinal preparation; marketed by Amgen as Prolia (60 mg) and Xgeva (120 mg),Chair Rising time repeated 6 months later,"[1]; osteoporosis patients, 6 months after beginning therapy",8 s and 10 s
same,reduction of the risk of falling,"[1]; three osteoporosis patients, 6 months",11-29%
same,Calcium (serum),"[2]; oncological patient (prostate cancer), 120 mg denosumab (Xgeva) every 4 weeks + 500 mg calcium and 1000 IU vitamin D3 daily, after 13 weeks",2.11 mmol/L
same,Calcium (serum),"[2]; oncological patient (prostate cancer), 120 mg denosumab (Xgeva) every 4 weeks + 500 mg calcium and 1000 IU vitamin D3 daily, after 26 weeks",2.12 mmol/L
same,Calcium (serum),"[2]; osteoporosis patients, 60 mg denosumab (Prolia) every 6 months + 500 mg calcium and 1000 IU vitamin D3 daily, after 13 weeks",2.34 mmol/L and 2.32 mmol/L and 2.3 mmol/L and 2.37 mmol/L
same,Calcium (serum),"[2]; osteoporosis patients, 60 mg denosumab (Prolia) every 6 months + 500 mg calcium and 1000 IU vitamin D3 daily, after 26 weeks",2.32 mmol/L and 2.45 mmol/L
"C=C1/C(=C\C=C2/CCC[C@]3(C)[C@@H]([C@H](C)CCCC(C)(C)O)CC[C@@H]23)C[C@@H](O)C[C@@H]1O [calcitriol, 1α,25-dihydroxycholecalciferol]",time to maximum serum concentration after intake,[3],three to six
vitamin D,maintaining the vitamin D concentration at the standard level,[4],not sufficient
same,25(OH) vitamin D3 serum concentration at maintenance dose of 1000 IU of vitamin D daily,"[5]; individual female patients with initial vitamin D deficiency, 1000 IU vitamin D daily",29.2 ng/mL and 30.4 ng/mL and 28.8 ng/mL and 23.7 ng/mL and 23.2 ng/mL and 30.5 ng/mL and 25.5 ng/mL and 23.4 ng/mL
same,maintaining the vitamin D level in the normal range,[5]; maintenance dose of 1000 IU of vitamin D daily,suitable
